{"source": "patent US8716284B2", "about": "“Adamantyl diamide derivatives and uses of same” (H. Lundbeck A/S, priority 2008, dated 2014)", "key": {"adult, male CD1 mice": {"tested_on": "adult, male CD1 mice", "experiment": "Mouse marble burying (mMB) assay, anxiolytic effect", "type": "in vivo", "conditions": "for mMB EDmin: SC given for Example 58", "protocol": "(§1) Examples 1, 2 and 58 were evaluated in vivo for anxiolytic effects using (1) mouse marble burying (mMB) methods similar to those described in [K. Njung'e, K. and S. L. Handley, Pharmacology, Biochemistry and Behavior, 1991, 38, 63-67] and (2) a modified Geller-Seifter conflict test described in [N. A. Moore et al. Behavioural Pharmacology. 1994, 5, 196-202].\nMore specifically for the mMB testing, adult, male CD1 mice (Charles River Laboratories (Kingston, N.Y.)), weighing 25 to 30 g, were used. All animals were group-housed in a standard colony room with a 12:12 light/dark cycle (lights on at 6:00 am) for at least one week prior to testing. Food and water were provided ad libitum. Animals were weighed, tail marked, and randomly assigned to treatment groups before testing.\nFor each test, sixty minutes after the injection of vehicle or test compound, or 30 min after injection of the positive control, buspirone, mice were individually placed into test cages containing 1.5 in of Aspen bedding (PWI brand) and two rows of 10 marbles (20 marbles per test cage total). Filter tops were used to cover each test cage. Thirty minutes later, mice were removed from test cages and returned to their home cages. The number of fully visible marbles (less than ⅔ covered with bedding) were counted and subtracted from 20 to arrive at the number of marbles buried. Twelve mice were tested per group.\nTesting included multiple tests with each test performed to evaluate buspirone hydrochloride (BUS; Sigma Aldrich) (positive control) and/or a compound of the present invention. Each compound was dissolved immediately prior to testing in 20% beta-cyclodextrin (compound of the present invention) or distilled water (BUS) and administered at one or more doses (such as 3, 10, and/or 30 mg/kg) via subcutaneous (SC) or intraperitoneal (IP) injection at the indicated pretreatment times (i.e., 30, 60, or 120 min pretreatment). Doses were measured in mg drug (salt form) per kg body weight. Data was analyzed using one-way ANOVA with post-hoc Dunnett's test."}, "mGluR5": {"target": "mGluR5 (Homo sapiens, UniProt P41594)", "sequence (P41594 21-1212)": "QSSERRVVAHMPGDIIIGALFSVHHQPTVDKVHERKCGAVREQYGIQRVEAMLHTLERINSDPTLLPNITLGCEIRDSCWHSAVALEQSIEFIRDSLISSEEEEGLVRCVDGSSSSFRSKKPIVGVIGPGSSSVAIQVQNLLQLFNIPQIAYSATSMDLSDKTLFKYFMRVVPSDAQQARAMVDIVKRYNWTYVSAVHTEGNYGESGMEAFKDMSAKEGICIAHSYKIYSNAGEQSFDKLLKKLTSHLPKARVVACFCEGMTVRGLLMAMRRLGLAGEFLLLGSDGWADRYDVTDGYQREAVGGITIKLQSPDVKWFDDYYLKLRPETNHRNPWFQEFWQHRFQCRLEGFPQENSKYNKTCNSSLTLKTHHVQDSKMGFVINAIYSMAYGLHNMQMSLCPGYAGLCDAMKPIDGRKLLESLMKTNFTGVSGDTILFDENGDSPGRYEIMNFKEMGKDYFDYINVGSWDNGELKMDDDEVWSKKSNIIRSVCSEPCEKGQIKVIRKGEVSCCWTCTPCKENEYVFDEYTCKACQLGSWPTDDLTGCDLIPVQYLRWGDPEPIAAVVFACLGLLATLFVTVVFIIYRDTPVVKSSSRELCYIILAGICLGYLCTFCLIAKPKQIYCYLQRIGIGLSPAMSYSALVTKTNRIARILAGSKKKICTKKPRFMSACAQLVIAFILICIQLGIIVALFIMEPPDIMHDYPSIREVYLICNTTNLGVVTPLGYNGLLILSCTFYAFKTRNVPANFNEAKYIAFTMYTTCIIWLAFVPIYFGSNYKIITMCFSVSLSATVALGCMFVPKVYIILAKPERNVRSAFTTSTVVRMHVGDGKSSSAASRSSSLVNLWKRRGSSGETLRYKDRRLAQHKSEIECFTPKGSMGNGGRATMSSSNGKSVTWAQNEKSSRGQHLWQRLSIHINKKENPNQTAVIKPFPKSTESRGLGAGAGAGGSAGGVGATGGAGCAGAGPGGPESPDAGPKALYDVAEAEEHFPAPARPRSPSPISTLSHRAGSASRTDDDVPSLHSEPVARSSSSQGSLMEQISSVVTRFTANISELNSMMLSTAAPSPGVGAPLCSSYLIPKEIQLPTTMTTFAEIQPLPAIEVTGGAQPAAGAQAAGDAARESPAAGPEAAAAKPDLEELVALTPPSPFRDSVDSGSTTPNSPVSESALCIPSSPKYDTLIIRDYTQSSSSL", "experiment": "Radioligand binding assay, [3H]MPEP filtration binding to membrane homogenates", "conditions": "5 nM [3H]MPEP; Ki calculated from IC50 by Cheng-Prusoff", "protocol": "Binding assays were performed as described in [J. A. O'Brien et al. Mol. Pharmacol., 2003, 64, 731-740] with slight modifications. Briefly, after thawing, the membrane homogenates were resuspended in 50 mM Tris-HCl, 0.9% NaCl binding buffer at pH 7.4 to a final assay concentration of 40 μg protein/well for [^3H]methoxy-5-(2-pyridinylethynyl)pyridine ([^3H] MPEP) (American Radiolabeled Chemicals, Inc., St. Louis, Mo.) filtration binding. Incubations included 5 nM [^3H] MPEP, membranes and either buffer or varying concentrations of compound. Samples were incubated for 60 min at room temperature with shaking. Non-specific binding was defined with 10 μM MPEP. After incubation, samples were filtered over a GF/C filter (presoaked in 0.25% polyethyleneimine (PEI)) and then washed 4 times using a Tomtec® Harvester 96® Mach III cell harvester (Tomtec, Hamden, Conn.) with 0.5 mL ice-cold 50 mM Tris-HCl (pH 7.4).\nIC50 values were derived from the inhibition curve and Ki values were calculated according to the Cheng and Prusoff equation of Ki=IC50/(1+[L]/Kd) described in [Y. Cheng and W. H. Prusoff Biochem. Pharmacol. 1973, 22, 3099-3108] where [L] is the concentration of radioligand and Kd is its dissociation constant at the receptor, derived from the saturation isotherm."}, "[1]": {"target": "T1, rat metabotropic glutamate receptor 5 (mGluR5) (Rattus norvegicus, UniProt P31424)", "T1 construct": "expressed in transfected cells; host or cells: HEK 293", "T1 sequence (P31424 21-1171 isoform P31424-2 limits assumed)": "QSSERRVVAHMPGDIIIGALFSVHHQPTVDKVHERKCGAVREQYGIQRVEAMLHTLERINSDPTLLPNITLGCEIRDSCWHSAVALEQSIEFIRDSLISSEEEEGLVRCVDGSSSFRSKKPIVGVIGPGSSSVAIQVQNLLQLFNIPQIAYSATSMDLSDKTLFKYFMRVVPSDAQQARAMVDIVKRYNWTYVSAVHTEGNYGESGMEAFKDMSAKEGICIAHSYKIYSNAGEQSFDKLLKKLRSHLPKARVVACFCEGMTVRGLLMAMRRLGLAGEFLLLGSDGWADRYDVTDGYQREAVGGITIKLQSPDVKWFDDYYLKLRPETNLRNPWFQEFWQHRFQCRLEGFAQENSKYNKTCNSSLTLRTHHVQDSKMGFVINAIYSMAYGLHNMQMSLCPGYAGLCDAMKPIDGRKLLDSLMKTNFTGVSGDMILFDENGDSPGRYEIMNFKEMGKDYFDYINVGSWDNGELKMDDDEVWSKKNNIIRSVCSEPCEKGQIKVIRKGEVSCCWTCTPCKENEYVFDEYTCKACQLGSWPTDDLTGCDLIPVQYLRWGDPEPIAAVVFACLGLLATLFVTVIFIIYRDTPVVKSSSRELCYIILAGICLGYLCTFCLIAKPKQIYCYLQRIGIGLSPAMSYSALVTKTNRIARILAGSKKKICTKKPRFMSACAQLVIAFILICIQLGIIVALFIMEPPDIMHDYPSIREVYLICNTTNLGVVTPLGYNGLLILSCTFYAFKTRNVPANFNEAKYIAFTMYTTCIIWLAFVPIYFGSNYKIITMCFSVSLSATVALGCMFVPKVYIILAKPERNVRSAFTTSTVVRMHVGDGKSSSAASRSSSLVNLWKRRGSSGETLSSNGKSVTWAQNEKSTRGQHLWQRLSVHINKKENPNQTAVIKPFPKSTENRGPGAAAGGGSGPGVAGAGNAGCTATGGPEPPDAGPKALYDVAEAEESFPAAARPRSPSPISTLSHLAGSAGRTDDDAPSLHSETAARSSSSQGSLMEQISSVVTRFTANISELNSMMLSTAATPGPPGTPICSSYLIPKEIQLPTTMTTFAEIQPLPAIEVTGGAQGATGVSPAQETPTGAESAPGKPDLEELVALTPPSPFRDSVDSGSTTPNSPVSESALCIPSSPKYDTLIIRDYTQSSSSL", "experiment": "Calcium mobilization assay (FLIPR) for negative or positive allosteric activity, HEK 293 cells", "type": "cell-based", "conditions": "HEK293, negative allosteric modulation, inhibition of EC80 glutamate response; read-out: FLIPR maximum inhibition", "summary_of_the_method": "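HEK 293 cells stably expressing rat mGluR5, Fluo-4 loaded in HEPES-buffered HBSS pH 7.4 with 0.1% BSA and probenecid. Compound added with EC20 (potentiation) or EC80 (inhibition) glutamate; fluorescence read over 3 min at room temperature. Basal-subtracted maximum fluorescence change fitted to Hill equation.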"}, "[2]": {"tested_on": "adult, male Sprague-Dawley rats", "experiment": "Modified Geller-Seifter conflict test, anxiolytic effect", "type": "in vivo, rat", "conditions": "for Statistically significant Active dose(s): oral, Geller-Seifter assay, ANOVA with Dunnett's test or t-test; for Geller-Seifter EDmin: rat conflict test, PO for Example 58", "protocol": "as §1\nMore specifically for the Geller-Seifter Conflict testing, rodent operant chambers (ENV-007CT, Med Associates Inc. (Georgia, Vt.)) and sound-attenuating chambers (ENV-018MD, Med Associates Inc.) were used. Each chamber was equipped with a house light, cue lights, grid floor to deliver foot shocks via a programmable shocker, (ENV-414, Med Associates, Inc.) and food hopper. Two levers were located on either side of the food hopper, Rats were trained to only respond on the left lever. Food reinforcement was used (Dustless Precision Pellets, 45 mg, BioServ, (Frenchtown, N.J.)). MED-PCIV software (Med Associates) was used to run experimental sessions and collect data.\nPrior to beginning the Conflict procedure, animals were initially trained to lever press on fixed ratio schedules (FR 1, 2, 5, and 10). Once animals obtained 25 rewards on a FR 10 schedule for 2 consecutive days, animals began training on a three component Conflict schedule. […] These three components were repeated twice in the same order during the daily 30 minute session.\nAnimals were tested using a Latin-squares design, on Wednesdays and Fridays. Animals served as their own controls and received all treatments. To maintain baseline performance, animals were also trained the remaining three weekdays.\nTesting was performed using 12 adult, male Sprague-Dawley rats, weighing 426-567 g (Charles River Laboratories (Kingston, N.Y.)). Animals were pair-housed in colony rooms maintained at controlled temperature (68-72° F.) and a 12-h light/dark cycle (lights on 06:00). Animals were given free access to water, while food was limited to 15 g of Bacon Lover's Treats (BioServ) after training/testing Monday through Thursday. Friday through Sunday, animals had free access to Lab Diet 5012 Rat Diet (PMI Nutrition International, LLC, Brentwood, Mo.) until cages were changed and food removed on Sunday.\nTesting included multiple tests where each test was performed to evaluate either a reference compound or a compound of the present invention. Reference anxiolytics included chlordiazepoxide, diazepam and buspirone, which were dissolved in saline or water and administered via SC, IP, and/or PO, Test compounds were dissolved in 20% beta-cyclodextrin, and the pH was adjusted to 7 with NaHCO3. For each test, the compound to be evaluated was tested at one or more doses (such as 10, 20, 30 and/or 50 mg/kg) via p.o. administration 60 minutes before the test using an injection volume of 2 mL/kg in comparison with a vehicle control group. Doses were measured in mg drug (salt form) per kg body weight. Data was analyzed using Repeated Measures ANOVA with post-hoc Dunnett's test."}}, "data": [{"smiles": "O=C(NC12CC3CC(C1)CC(NC(=O)c1ccccn1)(C3)C2)c1ccccn1", "note": "[Example 2, N,N′-(1,3-adamantylene)bis(2-pyridinecarboxamide)]", "values": [{"measurement": "mMB EDmin", "setting": "adult, male CD1 mice", "value": 30, "unit": "mg/kg"}, {"measurement": "minimal effective dose", "setting": "adult, male CD1 mice; SC injection, one-way ANOVA with Dunnett's test or t-test, read-out: Statistically significant Active Dose", "value": 30, "unit": "mg/kg"}, {"measurement": "Ki", "setting": "mGluR5", "value": 40, "unit": "nM"}, {"measurement": "Emax", "setting": "[1]", "value": "90 to 99", "unit": "%"}, {"measurement": "Statistically significant Active dose(s)", "setting": "[2]", "value": 20, "unit": "mg/kg"}, {"measurement": "Geller-Seifter EDmin", "setting": "[2]", "value": 20, "unit": "mg/kg"}]}, {"smiles": "Cc1cccc(C(=O)NC23CC4CC(C2)CC(NC(=O)c2cccc(C)n2)(C4)C3)n1", "note": "[Example 1, N,N′-(1,3-adamantylene)bis(6-methyl-pyridine-2-carboxamaide)]", "values": [{"measurement": "mMB EDmin", "setting": "adult, male CD1 mice", "value": 3, "unit": "mg/kg"}, {"measurement": "Ki", "setting": "mGluR5", "value": 6.7, "unit": "nM"}, {"measurement": "Emax", "setting": "[1]", "value": "90 to 99", "unit": "%"}, {"measurement": "Statistically significant Active dose(s)", "setting": "[2]", "value": 50, "unit": "mg/kg"}, {"measurement": "Geller-Seifter EDmin", "setting": "[2]", "value": 10, "unit": "mg/kg"}]}, {"smiles": "Cc1cccc(C(=O)NC23CC4CC(CC(NC(=O)c5cnccn5)(C4)C2)C3)n1", "note": "[Example 41, Pyrazine-2-carboxylic acid {3-[(6-methyl-pyridine-2-carbonyl)-amino]-adamantan-1-yl}-amide]", "values": [{"measurement": "Emax", "setting": "[1]", "value": "63 to 99", "unit": "%"}, {"measurement": "Statistically significant Active dose(s)", "setting": "[2]", "value": 30, "unit": "mg/kg"}]}, {"smiles": "Cc1cnc(C(=O)NC23CC4CC(CC(NC(=O)c5cccc(F)c5)(C4)C2)C3)cn1", "note": "[Example 94, 5-Methyl-pyrazine-2-carboxylic acid [3-(3-fluoro-benzoylamino)-adamantan-1-yl]-amide]", "values": [{"measurement": "Ki", "setting": "mGluR5", "value": "6 to 700", "unit": "nM"}, {"measurement": "Emax", "setting": "[1]", "value": "63 to 99", "unit": "%"}, {"measurement": "Statistically significant Active dose(s)", "setting": "[2]", "value": 20, "unit": "mg/kg"}]}, {"smiles": "Cc1cncc(C(=O)NC23CC4CC(CC(NC(=O)c5ccccn5)(C4)C2)C3)n1", "note": "[Example 58, 6-Methyl-pyrazine-2-carboxylic acid {3-[(pyridine-2-carbonyl)-amino]-adamantan-1-yl}-amide]", "values": [{"measurement": "mMB EDmin", "setting": "adult, male CD1 mice", "value": 10, "unit": "mg/kg"}, {"measurement": "Ki", "setting": "mGluR5", "value": "6 to 700", "unit": "nM"}, {"measurement": "Emax", "setting": "[1]", "value": "63 to 99", "unit": "%"}, {"measurement": "Geller-Seifter EDmin", "setting": "[2]", "value": 10, "unit": "mg/kg"}]}]}
